What was measured:
Assay type in all cases: cell-based
human zygotes = experiment: DNA damage foci immunostaining in human zygotes/parthenotes
Method: (§1) Embryos, mouse and human, were cultured in Global Total (Life-Global) for the duration of the experiments and with added compounds as outlined below. Incubation in RNA polymerase inhibitors triptolide (1 mM) or alpha amanitin (20 mg/ml) was performed from the 2PN stage (day1) to day3 of human development. Incubation in aphidicolin was performed at 2 mM. […] Mirin was used at a concentration of 50 mM. Olaparib was used to inhibit PARP at a concentration of 10 mM. All experiments were conducted during incubation at 37° C. with 5% CO2 and 19-20% O2. Chemical stock solutions were prepared in DMSO at concentrations at least 1000× higher than the final concentration.
Artificial activation of human MII oocytes was performed using two pulses of 2.7 kV/cm at 50 ms using ECFG21 (Nepagene) in fusion buffer consisting of 0.25 M d-sorbitol buffer containing 0.1 mM calcium acetate, 0.5 mM magnesium acetate, 0.5 mM HEPES, and 1 mg ml^−1 fatty-acid-free BSA as previously described (Tachibana et al., 2013). Thereafter, oocytes were incubated for 3.5-4 h in 10 mg/ml puromycin, followed by a wash step and following culture in Global total.
(§2) Following the experimental exposures, mouse and human embryos were fixed in 2% paraformaldehyde (PFA) and 0.25% Triton X-100 in PBS for 10 minutes at room temperature, serially washed in phosphate-buffered solution (PBS) at room temperature, then stored in PBS at 4° C. until staining and imaging. Embryos were placed in 10-20 ml droplets of primary antibody solution within plastic tissue culture dishes covered with mineral oil for 1 hour at room temperature, serially washed (×2) in PBS containing 0.01% Triton X-100 to prevent embryos sticking to oil, then transferred to 10-20 ml secondary antibody solution and Hoechst (dilution 1:500) for 30 minutes. Embryos were then serially washed (×2) and placed in 5 ml droplets of PBS with 0.5% serum albumin in uncoated glass bottom dishes (Mattek) covered with embryo culture oil for imaging. The following primary antibodies were used across experiments as described above: Oct-4, γH2AX, RPA32, RPA32 S4/S8, RPA32 S33, 53BP1, RAD51, Centromere, and phospho-CHK1. […] The appropriate secondary antibodies conjugated with Alexa Fluor 488, Alexa Fluor 555, CF 568, or Alexa Fluor 647 were diluted at 1:500-1:1000. Ethynyl deoxyuridine (EdU) labeling of zygotes and embryos was performed using the labeling kit (Thermo Fisher Scientific) as described by the manufacturer. 10 mM EdU was added to culture medium for 1 h at the indicated time points, and cells were harvested and fixed thereafter. 5-ethynyl uridine (EU) labeling was performed by incubating day3 cleavage stage embryos for 4 hours in Global total containing 0.2 mM EU.
(§3) Embryos were imaged with confocal microscopy using a Zeiss LSM (LSM 710) at a magnification of 63× and the Zeiss Zen software. Images were obtained using 488-, 543- and 633-nm lasers and bright-field microscopy. The number of confocal sections was adjusted to capture the entire nucleus or the entire embryo according to the experimental design as described above. Cell numbers and staining foci numbers were counted manually. Nuclei were identified by the presence of Hoechst33342. Foci were identified if at least 3× greater intensity than nuclear average, spherical in appearance, and overlapping with Hoechst33342 staining. Inner cell masses were identified by the presence of Oct4 within a blastocyst embryo. Active DNA replication was identified by the presence of EdU. DNA damage was identified by the detection of γH2AX and RPA foci within the nucleus. Mechanisms of DNA repair were identified through the detection of RPA S4/S8, RPA S33, Rad51 and 53BP1 foci within the nucleus.

mouse 1-cell embryos = experiment: timing of mitotic entry in mouse 1-cell embryos; conditions: application in G2 phase, depending on the time point of application
Method: as §1
(§4) Mouse oocytes were activated at 1-6 hours post retrieval using 2 mM ionomycin (Sigma Aldrich) in Global Total medium for 5 minutes at 37° C. followed by culture in 10 mM puromycin and 5 mg/ml cytochalasin B for 3 hours, then cytochalasinB only for 2 hours and 10 minutes to prevent second polar body extrusion.

mouse zygotes = experiment: DNA damage foci immunostaining in mouse zygotes/embryos
Method: as §1, §4
as §2, with “phospho-CHK1. Phospho-specific antibodies were quality controlled through ATR dependence of foci formation in mouse zygotes, and for γH2AX also in human zygotes.” for “phospho-CHK1.”
as §3

[1] = tested on: mouse parthenogenetic zygotes; experiment: anaphase figures at the first mitosis, mouse parthenogenetic zygotes
Method: as §1, §4
as §2, with “phospho-CHK1. Phospho-specific antibodies were quality controlled through ATR dependence of foci formation in mouse zygotes, and for γH2AX also in human zygotes.” for “phospho-CHK1.”

mouse embryos = experiment: mouse preimplantation development and embryo quality
Method: as §1, §4
as §2, with “phospho-CHK1. Phospho-specific antibodies were quality controlled through ATR dependence of foci formation in mouse zygotes, and for γH2AX also in human zygotes.” for “phospho-CHK1.”
as §3

[2] = human, aphidicolin incubation in G2 phase
[3] = mice, aphidicolin incubation in G2 phase

C[C@@]1(CO)[C@H](O)CC[C@@]2(C)[C@H]1CC[C@H]1C[C@@H]3C[C@@]12CC[C@]3(O)CO [aphidicolin]
time to formation of foci for γH2AX and RPA32 (human zygotes; aphidicolin from 15.5 h post activation): ≤ 6 h | RPA32-positive foci per haploid nucleus, average (human zygotes; human, aphidicolin incubation): 1.8 per haploid nucleus | γH2AX foci positive for RPA32 (human zygotes; human, aphidicolin incubation): Approximately 10% | mean γH2AX foci (human zygotes; [2]): 21 | γH2AX foci, range (human zygotes; [2]): 0-51 | mitotic entry (mouse 1-cell embryos): inhibited | markers of DNA damage (γH2AX, Rpa32, Rpa32 phosphoS33) (mouse zygotes; 4-8 cell stage, 48 h post activation): increased | time to formation of phospho-RPA32, γH2AX and Rad51 foci after fork stalling (mouse zygotes; G2 arrested zygotes): 2 to 4 h | time to resolution of foci after release from the compound (mouse zygotes; G2 arrested zygotes): 1 to 2 h | RPA32-positive foci per haploid nucleus, average (mouse zygotes; mice, aphidicolin incubation): 4.5 per haploid nucleus | γH2AX foci positive for RPA32 (mouse zygotes; mice, aphidicolin incubation): Approximately 10% | mean γH2AX foci (mouse zygotes; [3]): 43 | γH2AX foci, range (mouse zygotes; [3]): 0-228 | embryos with abnormal anaphase, range per experiment ([1]; aphidicolin in G2 phase): 7%-30% | embryos with abnormal anaphase ([1]; aphidicolin in G2 phase, controls 191/191 normal): 17.4% | effect on chromosome segregation at anaphase ([1]; applied only after pronuclear envelope breakdown): inconsequential | frequency of abnormal anaphase figures ([1]; both ATR kinase inhibitor and aphidicolin in G2 phase): 63% | micronucleation (mouse embryos; 48 h post activation, aphidicolin in G2): increased | cleaved embryos developed to the blastocyst stage, range (mouse embryos; aphidicolin in G2 phase): 25%-87% | cleaved embryos developed to the blastocyst stage (mouse embryos; aphidicolin in G2 phase, controls 92%): 72% | ICM cells marked by Pou5f1 (mouse embryos; day 5, aphidicolin in G2): fewer | total cell number of blastocysts (mouse embryos; day 5, aphidicolin in G2): reduced
